Laboratory results as given in article PMC11054274, “Dual Antitubercular and Antileishmanial Profiles of Quinoxaline Di-N-Oxides Containing an Amino Acidic Side Chain” (Pharmaceuticals, 2024).
Like-named read-outs stand apart in the source and are kept apart here.

Columns and labels:
[1] = system: Mycobacterium tuberculosis H37Rv; assay: In vitro activity against Mycobacterium tuberculosis H37Rv, microdilution AlamarBlue broth assay (BacTiter-Glo alternative read-out); format: cell-based; conditions: Table S1, Mtb H37Rv; for IC50: read-out: IC50, antibacterial activity against Mtb H37Rv; for IC90: read-out: IC90, antibacterial activity against Mtb H37Rv
[2] = system: Leishmania donovani amastigotes; assay: Intracellular amastigote assay in J774 macrophages, L. donovani; format: cell-based; conditions: for IC50: Table S3, intracellular amastigotes, 48 h
Procedure: (§1) We performed an intracellular amastigote assay on L. amazonensis and L. donovani according to a fluorometric method reported by us. To carry out the in vitro macrophage infections, 5 × 10^4 cells were cultured in RPMI-1640 medium and then were infected with 5 × 10^5 promastigotes. In the L. donovani assays, the plates were incubated for 48 h at 37 °C, while in the L. amazonensis assays, they were incubated at 33 °C for the first 24 h and then the temperature was increased to 37 °C for the next 24 h. After, the culture medium was removed and the cells were washed with buffered RPMI-HEPES at pH 7.4 several times in order to eliminate the non-internalized promastigotes. A total of 100 µL of fresh medium tempered at 37 °C was added to the infected cells, which then were exposed to 100 µL of the test compounds in RPMI-1640 at different concentrations (100, 50, 25, 12.5, 6.25, 3.12, 1.56 and 0.78 µg/mL in a final volume of 200 µL) for 48 h at 37 °C. The culture medium was removed by centrifugation at 3500 rpm for 5 min (Centrifuge 5403 Eppendorf) and a lysis solution (0.02% sodium dodecyl sulfate in RPMI-HEPES) was added. After 20 min, the treated cells were harvested (centrifugation at 3500 rpm for 5 min at 4 °C) and the supernatants were replaced by 200 μL of fresh Schneider’s culture medium. The plates were then incubated at 26 °C for another 3 days to allow for the transformation of viable amastigotes into promastigotes and proliferation. Afterwards, 20 μL/well of 2.5 mM resazurin was added and incubated for another 3 h. Finally, URF was measured and IC50 was estimated as described above. All tests were carried out in triplicate. Miltefosine was used as the reference drug.

[3] = system: Leishmania amazonensis amastigotes; assay: Intracellular amastigote assay in J774 macrophages, L. amazonensis; format: cell-based; conditions: for L. amazonensis amastigote selectivity index (SI): SI = CC50 (J774 macrophages)/IC50
Procedure: as §1

[4] = system: Leishmania amazonensis promastigotes; assay: Promastigote susceptibility assay (resazurin), L. amazonensis; format: cell-based
Procedure: (§2) The following species of Leishmania were used: L. donovani (MHOM/IN/80/DD8), which was purchased (ATCC, Manassas, VA, USA), and L. amazonensis (MHOM/Br/79/Maria), which was kindly provided by Prof. Alfredo Toraño (Instituto de Salud Carlos III, Madrid, Spain). Promastigotes were cultured in Schneider’s Insect Medium supplemented with 10% heat-inactivated Fetal Bovine Serum (FBS) (SIGMA-Merck, Madrid, Spain) and 1000 U/L of penicillin plus 100 mg/L of streptomycin in 25 mL culture flasks at 26 °C.
(§3) The activity of the compounds on Leishmania promastigotes was performed according to the method previously reported by us. Briefly, promastigotes (2.5 × 10^5 parasites/well) were cultured in 96-well plastic plates. The compounds were dissolved in dimethylsulfoxide (DMSO). Serial dilutions at 1:2 of the test compounds in fresh culture medium were performed (100, 50, 25, 12.5, 6.25, 3.12, 1.56 and 0.78 µg/mL) in a final volume of 200 µL; the solutions were then added to the parasite suspension. After an incubation period of 48 h at 26 °C, a volume of 20 μL of 2.5 mM resazurin solution in PBS was added and the plates were incubated for 3 h under the same conditions. Finally, the Relative Fluorescence Unit (RFU) (535ex–590em nm wavelength) was determined in a fluorimeter (Infinite 200 Tecan i-Control). Growth inhibition (%) was calculated by 100—[(RFU treated wells—RFU signal-to-noise)/(RFU untreated—RFU signal-to-noise) × 100]. All tests were carried out in triplicate and the IC50 was calculated by probit analysis using SPSS 17.0 Statistics Software. Miltefosine (Sigma-Merck, Madrid, Spain) was used as the reference drug.

[5] = system: J774 murine macrophages; assay: Cytotoxicity assay on macrophages (resazurin); format: cell-based; conditions: 24 h exposure, read-out: Toxicity against J774 macrophages CC50
Procedure: (§4) J774 murine macrophages were grown in RPMI-1640 medium (Sigma) supplemented with 10% heat-inactivated FBS (30 min at 56 °C) (SIGMA-Merck), penicillin G (100 U/mL) and streptomycin (100 µg/mL). For the experiments, cells in the pre-confluence phase were harvested with trypsin. Cell cultures were maintained at 37 °C in a humidified environment with 5% CO2.
(§5) Cell viability was evaluated using a modification with resazurin of the colorimetric method described previously. J774 macrophages were seeded (5 × 10^4 cells/well) in 96-well flat-bottom microplates with 100 µL of RPMI-1640 medium. The cells were allowed to adhere for 4 h at 37 °C in 5% CO2, then different concentrations of the test compounds in 100 µL of the medium were added and exposed for 24 h. Growth controls were also included. To evaluate cell viability, 20 µL of a 2.5 mM resazurin solution was added and the plates were returned to the incubator for another 3 h. The reduction in resazurin was determined by measuring the fluorescence intensity (excitation wavelength, 535 nm; emission wavelength, 590 nm). Each concentration was assayed three times. The medium and controls were used in each test as blanks. The cytotoxic effect of the compounds was defined as the 50% reduction in cell viability of treated culture cells with respect to the untreated culture (CC50).

[6] = system: Leishmania donovani promastigotes; assay: Promastigote susceptibility assay (resazurin), L. donovani; format: cell-based; conditions: for IC50: Table S2, promastigotes, 48 h
Procedure: as §2, §3

[7] = Cytotoxicity assay on macrophages (resazurin); format: cell-based, murine; conditions: mouse, J774 macrophages, 24 h exposure, read-out: Toxicity against J774 macrophages CC50
Procedure: as §4, §5

[8] = read-out: IC50 against L. amazonensis amastigotes
[9] = Table S2, promastigotes, 48 h, read-out: L. amazonensis IC50 (promastigote)
[10] = Table S3, intracellular amastigotes, 48 h, read-out: L. amazonensis IC50 (amastigote)
[11] = SI = CC50 (J774 macrophages)/IC50

N-(1,4-Dioxide-3-((4-fluorophenyl)quinoxaline-2-carbonyl)glycine methyl ester [Compound 4d]
IC50 [1]: 28.6 µM | IC90 [1]: 47.7 µM | IC50 [2]: 234 ± 5.9 µM | IC50 [3, 8]: 9.8 µM | IC50 [4, 9]: 125 ± 1.43 µM | CC50 ([5]; Table S2): 539 µM | CC50 ([5]; Table S3): 539 µM | IC50 [6]: 165 ± 10.2 µM

N-(6-Methoxy-1,4-dioxide-3-(4-florophenyl)quinoxaline-2-carbonyl)glycine methyl ester [Compound 4i]
IC50 [1]: 47.2 µM | IC90 [1]: 66.5 µM | IC50 [2]: 71 ± 11 µM | IC50 [3, 10]: 12.9 ± 1.7 µM | IC50 [4, 9]: 117 ± 8 µM | CC50 ([5]; Table S2): 379 ± 49.9 µM | IC50 [6]: 46.9 ± 14.2 µM

COC(=O)CNC(=O)c1c(-c2cccc(Cl)c2)[n+]([O-])c2cc(OC)ccc2[n+]1[O-] [Compound 4g, N-(6-Methoxy-1,4-dioxide-3-(3-chlorophenyl)quinoxaline-2-carbonyl)glycine methyl ester]
IC50 [1]: 50 µM | IC90 [1]: 71.9 µM | IC50 [2]: 77.5 ± 6.2 µM | IC50 [3, 10]: 23.2 ± 4.1 µM | IC50 [4, 9]: 112 ± 13.7 µM | IC50 [6]: 40 ± 6.7 µM

CCCCCCCCCCCCCCCCOP(=O)([O-])OCC[N+](C)(C)C [Miltefosine, reference compound]
IC50 ([2]; Leishmania donovani, J774): 7.1 µM | L. donovani amastigote selectivity index (SI) [2, 11]: 19.1 | IC50 ([3]; Leishmania amazonensis, J774, Table S3, intracellular amastigotes, 48 h, read-out: L. amazonensis IC50 (amastigote)): 47.6 ± 7.4 µM | IC50 ([3]; Leishmania amazonensis, J774, read-out: IC50 against L. amazonensis amastigotes): 136 µM | L. amazonensis amastigote selectivity index (SI) [3]: 2.9 | L. amazonensis amastigote selectivity index (SI) ([3]; listed as miltefosine): 2.87 | IC50 ([4]; Leishmania amazonensis, read-out: IC50 against L. amazonensis (promastigote)): 47.9 µM | L. amazonensis promastigote selectivity index (SI) [4, 11]: 2.8 | CC50 at 24 h ([7]; Table S2): 136 ± 10.3 µM | CC50 at 24 h ([7]; Table S3): 136 µM | IC50 ([6]; Leishmania donovani): 0.2 ± 0.02 µM | L. donovani promastigote selectivity index (SI) [6, 11]: 680.5

COC(=O)CNC(=O)c1c(-c2ccc(F)cc2)[n+]([O-])c2cc(C)ccc2[n+]1[O-] [Compound 4m, N-(6-Methyl-1,4-dioxide-3-(4-fluorophenyl)-quinoxaline-2-carbonyl)glycine methyl ester]
IC50 [1]: 18.3 µM | IC90 [1]: 36.5 µM | IC50 [2]: 285 ± 115 µM | IC50 [3, 8]: 74.4 µM | IC50 [4, 9]: 62.8 ± 1.6 µM | CC50 ([5]; Table S2): 454 µM | CC50 ([5]; Table S3): 454 µM | IC50 [6]: 84.8 ± 8.9 µM

N-(6-Methoxy-1,4-dioxide-3-(4-trifloromethylphenyl)quinoxaline-2-carbonyl)glycine methyl ester [Compound 4h]
IC50 [1]: 8.46 µM | IC90 [1]: 12.4 µM | IC50 [2]: 39.5 ± 7.5 µM | IC50 [3, 10]: 20.9 ± 4 µM | IC50 [4, 9]: 122 ± 9.9 µM | CC50 ([5]; Table S2): 554 µM | CC50 ([5]; Table S3): 554 µM | IC50 [6]: 25.3 ± 1.55 µM

COC(=O)CNC(=O)c1c(-c2ccccc2C)[n+]([O-])c2cc(OC)ccc2[n+]1[O-] [Compound 4k, N-(6-Methoxy-1,4-dioxide-3-(2-methylphenyl)quinoxaline-2-carbonyl)glycine methyl ester]
IC50 [1]: 25.9 µM | IC90 [1]: 44.6 µM | IC50 [2]: 72.2 ± 18.6 µM | IC50 [3, 8]: 7.2 µM | IC50 [4, 9]: 117 ± 14.3 µM | CC50 ([5]; Table S2): 330 ± 75.5 µM | IC50 [6]: 23.9 ± 2.2 µM
